# Test results: ChEMBL document CHEMBL1201862, “PubChem BioAssay data set” (2004)
#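 Where inhibition never reached the appropriate level, the endpoint shown equals the highest concentration tested. Otherwise, values were interpolated linearly from a five-concentration, 48-hour dose response in 96-well plates. Abbreviation: GI50, concentration required for 50% inhibition of growth.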 Activity calls are given as the source filed them. Cut-off read from the data, not from the text of the source: active = GI50 up to about 1.1 µM and inactive = higher.
# Columns and labels:
# Test in all cases: DTP human tumour cell line panel, 48 h
# NCI-H522 = tested on: NCI-H522
# NCI/ADR-RES = tested on: NCI/ADR-RES
# Malme-3M = tested on: Malme-3M
# A498 = tested on: A498
# UO-31 = tested on: UO-31
# BT-549 = tested on: BT-549
# OVCAR-3 = tested on: OVCAR-3
# HCC 2998 = tested on: HCC 2998
# PC-3 = tested on: PC-3
# OVCAR-8 = tested on: OVCAR-8
# COLO 205 = tested on: COLO 205
# ACHN = tested on: ACHN
# 786-0 = tested on: 786-0
# RPMI-8226 = tested on: RPMI-8226
# M14 = tested on: M14
# MDA-MB-231 = tested on: MDA-MB-231
# Hs-578T = tested on: Hs-578T
# TK-10 = tested on: TK-10
# HL-60 = tested on: HL-60
# HCT-15 = tested on: HCT-15
# EKVX = tested on: EKVX
# SF-295 = tested on: SF-295
# MDA-MB-435 = tested on: MDA-MB-435
# HT-29 = tested on: HT-29
# A549 = tested on: A549
# SK-MEL-28 = tested on: SK-MEL-28
# K562 = tested on: K562
# SR = tested on: SR
# NCI-H460 = tested on: NCI-H460
# SN12C = tested on: SN12C
# KM12 = tested on: KM12
# CAKI-1 = tested on: CAKI-1
# NCI-H23 = tested on: NCI-H23
# MOLT-4 = tested on: MOLT-4
# HCT-116 = tested on: HCT-116
# SK-OV-3 = tested on: SK-OV-3
# SW-620 = tested on: SW-620
# UACC-257 = tested on: UACC-257
# RXF 393 = tested on: RXF 393
# IGROV-1 = tested on: IGROV-1
# SF-539 = tested on: SF-539
# T47D = tested on: T47D
# SNB-19 = tested on: SNB-19
# SK-MEL-5 = tested on: SK-MEL-5
# NCI-H226 = tested on: NCI-H226
# U-251 = tested on: U-251
# UACC-62 = tested on: UACC-62
# SF-268 = tested on: SF-268
# HOP-62 = tested on: HOP-62
# DU-145 = tested on: DU-145
# MDA-N = tested on: MDA-N
# LOX IMVI = tested on: LOX IMVI
# OVCAR-5 = tested on: OVCAR-5
# OVCAR-4 = tested on: OVCAR-4
# HOP-92 = tested on: HOP-92
# MCF7 = tested on: MCF7
# CCRF-CEM = tested on: CCRF-CEM
# SNB-75 = tested on: SNB-75
# SK-MEL-2 = tested on: SK-MEL-2
structure (smiles),measurement,setting,value
Cc1ccc(NCC2CC/C(=C\c3ccc(Cl)cc3)C2=O)cc1 (centres undefined),GI50,NCI-H522,7.38 µM (inactive)
same,GI50,NCI/ADR-RES,33.7 µM (inactive)
same,GI50,Malme-3M,18 µM (inactive)
same,GI50,A498,30.7 µM (inactive)
same,GI50,UO-31,21.2 µM (inactive)
same,GI50,BT-549,15.3 µM (inactive)
same,GI50,OVCAR-3,14.3 µM (inactive)
same,GI50,HCC 2998,30.6 µM (inactive)
same,GI50,PC-3,14.9 µM (inactive)
same,GI50,OVCAR-8,15.9 µM (inactive)
same,GI50,COLO 205,14.8 µM (inactive)
same,GI50,ACHN,10.3 µM (inactive)
same,GI50,786-0,4.12 µM (inactive)
same,GI50,RPMI-8226,0.635 µM (active)
same,GI50,M14,13.4 µM (inactive)
same,GI50,MDA-MB-231,11.4 µM (inactive)
same,GI50,Hs-578T,29 µM (inactive)
same,GI50,TK-10,11.3 µM (inactive)
same,GI50,HL-60,2.16 µM (inactive)
same,GI50,HCT-15,1.94 µM
same,GI50,EKVX,52.7 µM (inactive)
same,GI50,SF-295,28.1 µM (inactive)
same,GI50,MDA-MB-435,14.4 µM (inactive)
same,GI50,HT-29,12.4 µM (inactive)
same,GI50,A549,49.4 µM (inactive)
same,GI50,SK-MEL-28,15.6 µM (inactive)
same,GI50,K562,1.74 µM (inactive)
same,GI50,SR,3.87 µM (inactive)
same,GI50,NCI-H460,21.7 µM (inactive)
same,GI50,SN12C,13.1 µM (inactive)
same,GI50,KM12,5.66 µM (inactive)
same,GI50,CAKI-1,15.2 µM (inactive)
same,GI50,NCI-H23,20.6 µM (inactive)
same,GI50,MOLT-4,3.84 µM (inactive)
same,GI50,HCT-116,11.6 µM (inactive)
same,GI50,SK-OV-3,> 100 µM (inactive)
same,GI50,SW-620,3.67 µM (inactive)
same,GI50,UACC-257,17.4 µM (inactive)
same,GI50,RXF 393,17 µM (inactive)
same,GI50,IGROV-1,16.6 µM (inactive)
same,GI50,SF-539,23.7 µM (inactive)
same,GI50,T47D,15.1 µM (inactive)
same,GI50,SNB-19,21.2 µM (inactive)
same,GI50,SK-MEL-5,14.5 µM (inactive)
same,GI50,NCI-H226,> 76.6 µM (inactive)
same,GI50,U-251,17 µM (inactive)
same,GI50,UACC-62,18.4 µM (inactive)
same,GI50,SF-268,18.5 µM (inactive)
same,GI50,HOP-62,50 µM (inactive)
same,GI50,DU-145,30.1 µM (inactive)
same,GI50,MDA-N,13.6 µM (inactive)
same,GI50,LOX IMVI,6.03 µM (inactive)
same,GI50,OVCAR-5,22 µM (inactive)
same,GI50,OVCAR-4,24.4 µM (inactive)
same,GI50,HOP-92,0.569 µM (active)
same,GI50,MCF7,2.83 µM (inactive)
same,GI50,CCRF-CEM,2.39 µM (inactive)
same,GI50,SNB-75,> 100 µM (inactive)
C=C1C(C(=O)OC)[C@H]1C(=O)OC (some centres undefined),GI50,NCI-H522,> 100 µM (inactive)
same,GI50,NCI/ADR-RES,> 100 µM (inactive)
same,GI50,A498,> 100 µM (inactive)
same,GI50,UO-31,> 100 µM (inactive)
same,GI50,BT-549,> 100 µM (inactive)
same,GI50,OVCAR-3,> 100 µM (inactive)
same,GI50,HCC 2998,> 100 µM (inactive)
same,GI50,PC-3,> 100 µM (inactive)
same,GI50,OVCAR-8,> 100 µM (inactive)
same,GI50,COLO 205,> 100 µM (inactive)
same,GI50,ACHN,> 100 µM (inactive)
same,GI50,786-0,> 100 µM (inactive)
same,GI50,RPMI-8226,> 100 µM (inactive)
same,GI50,M14,> 100 µM (inactive)
same,GI50,MDA-MB-231,> 100 µM (inactive)
same,GI50,Hs-578T,> 100 µM (inactive)
same,GI50,TK-10,> 100 µM (inactive)
same,GI50,HL-60,> 100 µM (inactive)
same,GI50,HCT-15,> 100 µM
same,GI50,EKVX,> 100 µM (inactive)
same,GI50,SF-295,> 100 µM (inactive)
same,GI50,MDA-MB-435,> 100 µM (inactive)
same,GI50,HT-29,> 100 µM (inactive)
same,GI50,SK-MEL-2,> 100 µM (inactive)
same,GI50,A549,> 100 µM (inactive)
same,GI50,SK-MEL-28,> 100 µM (inactive)
same,GI50,SR,> 100 µM (inactive)
same,GI50,NCI-H460,> 100 µM (inactive)
same,GI50,SN12C,> 100 µM (inactive)
same,GI50,KM12,> 100 µM (inactive)
same,GI50,CAKI-1,> 100 µM (inactive)
same,GI50,NCI-H23,> 100 µM (inactive)
same,GI50,MOLT-4,> 100 µM (inactive)
same,GI50,HCT-116,> 100 µM (inactive)
same,GI50,SK-OV-3,> 100 µM (inactive)
same,GI50,SW-620,> 100 µM (inactive)
same,GI50,UACC-257,> 100 µM (inactive)
same,GI50,RXF 393,> 100 µM (inactive)
same,GI50,IGROV-1,> 100 µM (inactive)
same,GI50,SF-539,> 100 µM (inactive)
same,GI50,T47D,> 100 µM (inactive)
same,GI50,SNB-19,> 100 µM (inactive)
same,GI50,SK-MEL-5,> 100 µM (inactive)
same,GI50,NCI-H226,> 100 µM (inactive)
same,GI50,U-251,> 100 µM (inactive)
same,GI50,UACC-62,> 100 µM (inactive)
same,GI50,SF-268,> 100 µM (inactive)
same,GI50,HOP-62,> 100 µM (inactive)
same,GI50,DU-145,> 100 µM (inactive)
same,GI50,MDA-N,> 100 µM (inactive)
same,GI50,LOX IMVI,> 100 µM (inactive)
same,GI50,OVCAR-5,> 100 µM (inactive)
same,GI50,OVCAR-4,> 100 µM (inactive)
same,GI50,HOP-92,> 100 µM (inactive)
same,GI50,MCF7,> 100 µM (inactive)
same,GI50,SNB-75,> 100 µM (inactive)
